Patent US20220023317A1, “PREVENTING OR MITIGATING CHEMOTHERAPY INDUCED ALOPECIA USING VITAMIN D” (Berg LLC, priority 2013, published 2022)

What was measured:
HEKa cells [1] = assay: Real-time PCR Neuroscience and Ion Channels array, calcitriol-treated HEKa; format: cell-based, human; details: 0.1 μg/mL; for KCNB2 mRNA regulation pattern: full cell: upregulated until 24 hours
Protocol: Changes in mRNA levels were evaluated using real-time PCR quantification to assess mRNA levels in preselected subsets containing 80 pathway specific targets (see Appendix). The PCR array analysis utilized two groups of genes—those related to Heat Shock Proteins (SABiosciences), and those related to Neuroscience Ion Channels and Transporters (SABioscience). Cell culture: Primary human epidermal keratinocytes (HEKa) were maintained in Epilife Medium (Cascade Biologics, Inc., Portland Oreg.) along with Human Keratinocyte Growth Supplement (Cascade Biologics, Inc., Portland Oreg.). […] D3 treatment of HEKa cells: […] Vehicle control group of cells were treated with 5 mL media containing 1 μL of ethanol. Cells were harvested 3, 6, 16, 24, 48, or 72 hours after the start of the treatment. RNA isolation: Cells were lysed for RNA isolation at different treatment times using the RNeasy Mini kit (Qiagen, Inc., Valencia Calif.) following the manufacturer's instructions. RNA was quantified by measuring optical density at 260 nm. First Strand Synthesis: […] Real-time PCR: Products from the first strand synthesis were diluted with water, mixed with the SYBR green master mix (SABiosciences., Frederick Md.) and loaded onto PCR arrays. Real time PCR was run on the PCR Arrays (Heat Shock Protein Arrays, and Neuroscience and Ion Channel Arrays) (SABiosciences, Frederick Md.) on a Biorad CFX96. Data analyses were performed using the PCR array data analysis software available on the SABiosciences website.

SKMEL-28 = assay: Cell growth / viability assay; format: cell-based
NIH-3T3 = assay: Cell growth / viability assay; format: cell-based
HEKa cells [2] = assay: Pretreatment of cells with calcitriol before chemotherapy drugs; format: cell-based, human
Protocol: Then these pretreated cells were utilized to set up the cell based assay. […] Three commonly used chemotherapy drugs (doxorubicin, cisplatin and erlotinib) were selected to evaluate calcitriol treated cells. […] In these experiments, the commercial drugs were serially diluted, starting at a concentration 4-times higher than the final desired concentration for cell incubation. […] The assay was carried out according to the previously described method in order to provide consistency and allow direct comparison. The result was based upon measurement of the total number of viable cells. […] Thus, a topical application of calcitriol could be applied at the same time as the systemic delivery of the chemotherapy. A staged application is not required.

scalp hair follicles = assay: Rat model, duration of calcitriol treatment before chemotherapy; format: in vivo
From the text: While not wishing to be bound by any particular theory, it is believed that application of vitamin D to the scalp or any other area of skin having hair induces differentiation of hair follicles, which is required for the stage conversion of the hair from a growing anagen stage to an involuting catagen stage. […] In humans, a hair follicle of the scalp has a substantially longer anagen phase than that of animals. Indeed, at any time, at least 90% of hair follicles in a human scalp are in the anagen phase. It is believed that a short treatment duration is not sufficient to induce catagen stage in scalp hair follicles, which subsequently makes them more susceptible to cytotoxicity of chemotherapy. […] Continued application on a daily basis will ensure the maintenance of the catagen stage and extended protection throughout administration of multiple doses of a chemotherapeutic (e.g., taxane-containing) regimen.

[3] = Preliminary animal toxicology study; format: in vivo; details: dose of about 100 μg
MIAC51 = assay: Cure / survival rate of chloroleukemic rats after chemotherapy; format: in vivo, rat; details: for Cured (number of rats): of 40
Protocol: On day 5 after birth all rats received 1×105 MIAC51 intraperitoneally in 0.1 mL of serum free (SF) RPMI. MIAC51 were cultured in RPMI 1640 supplemented with L-glutamine and 10% fetal bovine serum at […] in a 5% CO2, 100% humidity incubator. Cells were grown to 50% confluency (1.5×106 mL) collected in 50 mL conical tubes, centrifuged at 600 g for 10 minutes at room temperature and resuspended in SF-RPMI at a concentration of 1×10^6/mL prior to injection.

[4] = 4-week dermal toxicity study in Gottingen Minipigs; details: both, Gottingen, minipig, in vivo
Protocol: (§1) Observations for morbidity, mortality, injury, and the availability of food and water were conducted twice daily for all animals. Clinical observations were conducted weekly.

Gottingen Minipig = assay: 4-week dermal toxicity study in Gottingen Minipigs; details: dermal, twice daily, 29 days, 2.1 mL over 450 cm^2
Protocol: as §1

C57BL/6 mice = details: topical calcitriol; cited from earlier work
BALB/c mice = details: cited from earlier work
[5] = system: female C57BL/6 adolescent mice; details: topical calcitriol; cited from earlier work
[6] = system: squamous cell carcinoma and human prostate cell carcinoma; details: 2.5 μg calcitriol 3 doses daily for 3 days, followed by paclitaxel; cited from earlier work
[7] = ADM + paclitaxel + etoposide, after two rounds
[8] = CTX + ADM + ARA-C, after two rounds
[9] = CTX + paclitaxel + etoposide, after two rounds
[10] = CTX, after two rounds of chemotherapy

## C=C1/C(=C\C=C2/CCC[C@]3(C)[C@@H]([C@H](C)CCCC(C)(C)O)CC[C@@H]23)C[C@@H](O)C[C@@H]1O [Calcitriol, (1a.3B.5Z.7E)-9,10-secocholesta-5,7,10(19)-triene-1,3,25-triol]
HEKa cells [1]; full cell: downregulated at 48 hours
  SLC1A3 mRNA regulation pattern: downregulated
HEKa cells [1]; full cell: upregulated at 16 hrs
  SLC1A1 mRNA regulation pattern: upregulated
HEKa cells [1]; full cell: upregulated at 48 hours
  KCNN4 mRNA regulation pattern: upregulated
HEKa cells [1]
  KCNB2 mRNA regulation pattern: upregulated at about 24 hours
HEKa cells [1]; listed as Vitamin D3
  KCNB2 mRNA regulation pattern: upregulated
SKMEL-28
  effect of calcitriol on cell growth: no significant growth promoting or growth inhibiting effects
  effect of calcitriol on cytotoxic effect of Doxorubicin: did not appear to appreciably alter
SKMEL-28; 0.1 μg/mL calcitriol supplement
  5-FU ED50 curve with vs without calcitriol: not significantly different
NIH-3T3
  effect of calcitriol on cell growth: no significant growth promoting or growth inhibiting effects
  effect of calcitriol on cytotoxic effect of Doxorubicin: did not appear to appreciably alter
HEKa cells [2]; 0.1 μg/mL calcitriol, two cell passages
  HEKa growth after prolonged calcitriol exposure: stopped growing
HEKa cells [2]; 0.1 μg/mL, doxorubicin, cisplatin, erlotinib
  chemoprotection, pre-treatment group vs simultaneous treatment group: nearly identical
Scalp hair follicles
  daily application before chemotherapy required to see any protective effect: at least four days
Scalp hair follicles; increasing protection up to one week
  protection with 5 days of application before chemotherapy: moderate protection
[3]
  dermal irritation: no dermal irritation
  skin penetration: excellent epidermal penetration without substantial dermal penetration
MIAC51; [7]
  % cured / survival rate: 80%
  Cured (number of rats): 32
MIAC51; [8]
  % cured / survival rate: 78%
  Cured (number of rats): 31
MIAC51; CTX + ADM, after two rounds
  % cured / survival rate: 50%
  Cured (number of rats): 20
MIAC51; [9]
  % cured / survival rate: 83%
  Cured (number of rats): 33
MIAC51; [10]
  % cured / survival rate: 25%
  Cured (number of rats): 10
MIAC51; calcitriol 2 μg/mL
  effect on efficacy of the chemotherapy agents: did not affect the efficacy of the chemotherapy agents
[4]
  NOAEL at 29 days: 3.33 µg/kg
Gottingen Minipig
  no-observed-adverse-effect-level (NOAEL): 10.31 µg/mL
C57BL/6 mice
  follicular apoptosis induced by cyclophosphamide: significantly diminish the degree of follicular apoptosis
BALB/c mice; injected with EMT-6 murine breast tumor cells
  protective effect in tumor-bearing male mice: diminished
BALB/c mice; male mice, topical 5 days prior to i.p. cyclophosphamide
  degree of CIA: significantly reduced the degree of CIA in a dose-dependent manner
[5]
  prevention of cyclophosphamide-induced alopecia: failed to demonstrate efficacy
  regrowth of pigmented hair shafts: significantly accelerated, enhanced, and quantitatively improved
[6]
  tumor response: significant tumor regression
